In PubChem BioAssay (NCI):
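Step 1: Grow cells in 96-well plates. Step 2: Expose to compound for 48 hours at 5 concentrations. Step 3: Interpolate endpoints linearly; if unreached, use highest concentration. TGI denotes the concentration required for complete inhibition of growth.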

How the values were obtained:
Assay in all cases: inhibition of tumour cell growth, NCI panel, 48 h
[1] = system: HL-60(TB) leukemia
[2] = system: SF-295 CNS
[3] = system: U251 CNS
[4] = system: UO-31 renal
[5] = system: EKVX NSCLC
[6] = system: DU-145 prostate
[7] = system: SF-539 CNS
[8] = system: MDA-MB-435
[9] = system: OVCAR-3 ovarian
[10] = system: RXF 393 renal
[11] = system: NCI-H226 lung
[12] = system: NCI-H460 lung
[13] = system: HCT-15 colon
[14] = system: HCT-116 colon
[15] = system: SK-MEL-28 melanoma
[16] = system: CCRF-CEM leukemia
[17] = system: SK-OV-3 ovarian
[18] = system: SK-MEL-5 melanoma

Row | Compound | TGI [1] [µM] | TGI [2] [µM] | TGI [3] [µM] | TGI [4] [µM] | TGI [5] [µM] | TGI [6] [µM] | TGI [7] [µM] | TGI [8] [µM] | TGI [9] [µM] | TGI [10] [µM] | TGI [11] [µM] | TGI [12] [µM] | TGI [13] [µM] | TGI [14] [µM] | TGI [15] [µM] | TGI [16] [µM] | TGI [17] [µM] | TGI [18] [µM]
1 | Cc1cc(C)c2c(=O)n(CN3CCC(O)(c4ccccc4)CC3)sc2n1 | 62.3 | > 100 | > 100 | 33.8 | 81.7 | > 100 | 58.3 | 48.7 | > 100 | 37.7 | > 100 | 95.3 | > 100 | > 100 | > 100 | > 100 | > 100 | > 100
2 | COc1cc([C@@H]2c3[nH]c4ccccc4c3C(Nc3ccc([N+](=O)[O-])cc3)[C@H]3COC(=O)N23)cc(OC)c1O (stereo not given in full) | 0.048 | 1.02 | 1.4 | 3.22 | 17 | 0.744 | 0.302 | 2.45 | 1.98 | 1.04 | 0.532 | 1.44 | 29.2 | 1.42 | 0.704 | 0.325 | 2.31 | 0.663
3 | CCOC(=O)CCC(NC(=O)Cc1ccc(Oc2nc3ccccc3nc2-c2cccs2)cc1)C(=O)OCC (stereo not given) | > 100 | > 100 | 87.1 | 72.7 | > 100 | > 100 | 26.3 | > 100 | 29.2 | 27.5 | 86.2 | > 100 | > 100 | > 100 | > 100 | > 100 |  | > 100
4 | Cc1[nH]c(=O)nc(NCCNCCO)c1C(=O)Nc1c2ccccc2nc2ccccc12 | > 100 | > 100 | > 100 | > 100 | > 100 | > 100 | > 100 | > 100 | > 100 | > 100 | > 100 |  | > 100 | > 100 | > 100 | > 100 | > 100 | > 100
5 | O=C(NCCO)Nc1c(C(F)(F)F)cc(-c2ccccc2)[nH]c1=O | > 100 | > 100 | > 100 | > 100 | > 100 | > 100 |  | > 100 | > 100 | > 100 | > 100 | > 100 | > 100 | > 100 | > 100 | > 100 | > 100 | > 100
6 | CN(C1=NCCO1)c1cccc2c1CCCC2 | > 10 | > 10 | > 10 |  | > 10 | > 10 | > 10 | > 10 |  | > 10 | 6.14 | > 10 | > 10 | 8.95 | > 10 | 8.06 | > 10 | 4.84
7 | O=C1CC2(CCNCC2)C(=O)N1N1CCCC1 | > 100 | > 100 | > 100 | > 100 | > 100 | > 100 | > 100 | > 100 | > 100 | > 100 | > 100 |  | > 100 | > 100 |  | > 100 | > 100 | > 100
8 | O=S(CCCl)c1c2ccccc2nc2ccccc12 (stereo not given) | > 100 | > 100 | > 100 | > 100 | > 100 | > 100 | > 100 | > 100 | > 100 | > 100 | > 100 | > 100 | > 100 | > 100 | > 100 | > 100 | > 100 | 
9 | O=[N+]([O-])c1cc(Cl)cc2cc(Cl)cnc12 | > 100 | > 100 | > 100 | > 100 | > 100 | > 100 | > 100 | > 100 | > 100 | > 100 | > 100 | > 100 | > 100 | > 100 | > 100 | > 100 |  | > 100
10 | COC(=O)CCn1cnc2c(SC)ncnc21 | > 100 | > 100 |  | > 100 | > 100 | > 100 | > 100 | > 100 | > 100 | > 100 | > 100 | > 100 |  | > 100 | > 100 | > 100 | > 100 | > 100
11 | CCOC(=O)c1c(-c2ccc(OC)cc2)c(C#N)c(=S)n(C2OC(CO)C(O)C(O)C2O)c1-c1ccccc1 (stereo not given) | > 100 | > 100 | > 100 | > 100 |  | > 100 | > 100 | 95.9 | 73 | 75.7 |  | > 100 | > 100 | 85.3 | > 100 | > 100 | > 100 | 26.5
